Experiments:
[1] = system: rabbit aortal strip (TXA2 mimetic agent U46619 as agonist); test: rabbit aortal strip model, antagonism of the TXA2 mimetic U46619 (test a); format: cell-based
Text: (a) The rabbit aortal strip model devised by Piper and Vane (Nature, 1969, 223, 29-35) using as agonist the TXA2 mimetic agent known as U46619 (R. L. Jones et alia in "Chemistry, Biochemistry and Pharmacological Activity of Prostanoids", eds. S. M. Roberts and F. Scheinmann, at p. 211; Pergamon Press, 1979);

[2] = system: blood pressure at the carotid artery; test: hypertensive effect of U46619 in anaesthetised rats (test d); format: in vivo, rats (Alderley Park strain); conditions: Rattus norvegicus, iv; intravenously via the jugular vein, anaesthetised male rats, n=3; read-out: ED50 (dose necessary to produce 50% of the maximum hypertensive effect)
Protocol: (d) Male rats (Alderley Park strain) are anaesthetised with sodium pentobarbital and blood pressure is monitored at the carotid artery. The TXA2 mimetic agent U46619 is administered intravenously via the jugular vein and an ED50 (dose necessary to produce 50% of the maximum hypertensive effect) is established (n=3). The ED50 for U46619 is approximately 5 μg/kg. A test compound is then administered either intravenously via the jugular vein or orally via a cannula directly into the stomach and the animal challenged with an ED50 dose of U46619, five minutes after dosing with test compound and then successively every ten minutes until the hypertensive effect of U46619 is no longer blocked.

In the case of `CC1(C)OC[C@H](Cc2ccccc2CCCC(=O)O)[C@H](c2ccccc2O)O1` (relative stereo) [Example 3, 4-(o-[2,2-dimethyl-4-o-hydroxyphenyl-1,3 dioxan cis-5-ylmethyl]phenyl)butanoic acid], the pA2 [1] is reported as 6.19.
With `CCCCC[C@H](O)/C=C/[C@@H]1[C@@H](C/C=C\CCCC(=O)O)[C@H]2CO[C@@H]1C2` [Example U46619] the ED50 [2] was ~5 µg/kg.

— patent publication US4668698A, “[(4-phenyl-1,3-dioxan-cis-5-yl)alkyl]phenylalkanoic acid derivatives” (Imperial Chemical Industries PLC, priority 1983, dated 1987)
